For 65 molecules, EC50 results are on record in patent US11613538B2, “Method of inhibiting or reducing a viral infection” (PTC Therapeutics, Inc., priority 2009, dated 2023).

Each structure is given as a SMILES string.

The test system of this assay is hypoxia-induced VEGF production in HeLa cells. Nature of the assay: cells. The assay is classed as cell-based, human. Conditions: Homo sapiens, HeLa.
As usually defined, the EC50 is the midpoint of the concentration-response curve. A high value points to a less potent agent. Take `O=C(OCC1CCC1)N1CCc2c([nH]c3ccc(Cl)cc23)[C@@H]1c1ccc(OC[C@@H](O)CO)cc1` [Compound 1382]: the concentration for a half-maximal effect (EC50) was under 8 nM.

The molecule `COc1ccc(OC(=O)N2CCc3c([nH]c4ccc(Cl)cc34)C2c2ccc(OCCCN3CCN(C)CC3)cc2)cc1` (centres unmarked) [Compound 1108] came in with an EC50 of 8 to 40 nM. `COC(=O)N1CCc2c([nH]c3ccc(Cl)cc23)C1c1ccc(OCCCN2CCOCC2)cc1` (centres unmarked) [Compound 1100] registered a 50% effective concentration (EC50) of 8 to 40 nM. Regarding `COc1ncc(C2c3[nH]c4ccc(Cl)cc4c3CCN2C(=O)Oc2ccc(Cl)cc2)cn1` (centres unmarked) [Compound 1689], the EC50 is 8 to 40 nM. The molecule `CCOC(=O)N1CCc2c([nH]c3ccc(Cl)cc23)C1c1ccc(OCC(=O)N2CCOCC2)cc1` (centres unmarked) [Compound 1012] yielded a concentration giving a half-maximal response (EC50) of 40 to 200 nM. In the case of `COCCN(CCCOc1cccc(C2c3[nH]c4ccc(Cl)cc4c3CCN2C(=O)Oc2ccc(F)cc2)c1)CCOC` (centres unmarked) [Compound 1119], the EC50 lay in the range of 40 to 200 nM. Molecule `CCN1CCN(C(=O)COc2ccc(C3c4[nH]c5ccc(Cl)cc5c4CCN3C(=O)Oc3ccc(OC)cc3)cc2)CC1` (centres unmarked) [Compound 1028] gave a half-maximal effective concentration (EC50) of 40 to 200 nM.

`CCOC(=O)N1CCc2c([nH]c3ccc(Cl)cc23)C1c1cccc(C(=O)NCC(=O)O)c1` (centres unmarked) [Compound 1388] had a concentration for a half-maximal effect (EC50) of over 1000 nM.

On to `COc1ccc(C2c3[nH]c4ccc(Cl)cc4c3CCN2C(=O)[C@H](Cc2ccccc2)NC(C)=O)cc1` (some centres unmarked) [Compound 1505], for which the EC50 is over 1000 nM. On to `CCCOC(=O)N1CCc2c([nH]c3ccc(Cl)cc23)C1c1ccc(OCC2OCCO2)cc1` (centres unmarked) [Compound 1034], for which the EC50 was under 8 nM.

As for `COc1cc(C2c3[nH]c4ccc(Cl)cc4c3CCN2C(=O)Oc2ccc(Cl)cc2)ccc1OCCCN1CCOCC1` (centres unmarked) [Compound 1093], the EC50 is 8 to 40 nM. Molecule `CCOC(=O)N1CCc2c([nH]c3ccc(Cl)cc23)C1c1ccc(OCC(CO)CO)cc1` (centres unmarked) [Compound 1208] showed an EC50 of 8 to 40 nM. For the molecule `O=C(OCC1CCC1)N1CCc2c([nH]c3ccc(Cl)cc23)[C@@H]1c1ccc(OCC[C@H](O)CO)cc1` [Compound 1374], the concentration for a half-maximal effect (EC50) is under 8 nM. `Clc1ccc2[nH]c3c(c2c1)CCNC3c1ccc(OC2CCOCC2)cc1` (centres unmarked) [Compound 1220] yielded an EC50 of 40 to 200 nM. In the case of `CCOC(=O)N1CCc2c([nH]c3cccc(Br)c23)C1c1ccc(OC)cc1` (centres unmarked) [Compound 1521], the EC50 was in the range of 200 to 1000 nM. The value for `CCOC(=O)N1CCc2c([nH]c3ccc(Cl)cc23)C1c1ccc(OCC(O)CNC(=O)COC)cc1` (centres unmarked) [Compound 1085] was under 8 nM.

In turn, `CC(C)(C)OC(=O)N1CCc2c([nH]c3ccc(Cl)cc23)C1c1ccc(OCCCn2cncn2)cc1` (centres unmarked) [Compound 1188] displayed an EC50 of under 8 nM.

Molecule `COc1cc(C2c3[nH]c4ccc(Cl)cc4c3CCN2C(=O)Oc2ccc(F)cc2)ccc1OCCCn1ccnn1` (centres unmarked) [Compound 1147] registered a 50% effective concentration (EC50) of 8 to 40 nM. `O=C(COc1ccc(C2c3[nH]c4ccc(Cl)cc4c3CCN2C(=O)Oc2ccc(F)cc2)cc1)NCCN1CCOCC1` (centres unmarked) [Compound 1022]: the concentration giving a half-maximal response (EC50) is 40 to 200 nM.

On to `CCOC(=O)N1CCc2c([nH]c3ccc(Cl)cc23)C1c1ccc(OCC(O)CNC(=O)c2ccncc2)cc1` (centres unmarked) [Compound 1467], for which the EC50 was under 8 nM. The value for `COc1ccc(C2NCCc3c2[nH]c2ccc(S(C)(=O)=O)cc32)cc1` (centres unmarked) [Compound 1504] was over 1000 nM. The molecule `CC(C)(C)OC(=O)N1CCc2c([nH]c3ccc(Cl)cc23)C1c1ccc(OCCCCl)cc1` (centres unmarked) [Compound 1189] yielded an EC50 of under 8 nM.

With `CCOC(=O)N1CCc2c([nH]c3ccc(Cl)cc23)[C@@H]1c1ccc(OC2OC(CO)C(O)C(O)C2O)cc1` (some centres unmarked) [Compound 1696], the concentration for a half-maximal effect (EC50) was over 1000 nM.

For `N#CCOc1ccc(C2c3[nH]c4ccc(Cl)cc4c3CCN2C(=O)OCCF)cc1` (centres unmarked) [Compound 1544], the EC50 lay in the range of 8 to 40 nM.

As for `CC1(C)OCC(COc2ccc([C@H]3c4[nH]c5ccc(Cl)cc5c4CCN3c3ncccn3)cc2)CO1` [Compound 1242], the 50% effective concentration (EC50) was under 8 nM. For the molecule `CCN(CC)C[C@H](O)COc1ccc([C@H]2c3[nH]c4ccc(Cl)cc4c3CCN2c2ncccn2)cc1` [Compound 1309], the concentration for a half-maximal effect (EC50) is 8 to 40 nM. Take `O[C@H](COc1ccc([C@H]2c3[nH]c4ccc(Cl)cc4c3CCN2c2ncccn2)cc1)CN1CCCCC1` [Compound 1310]: the EC50 lay in the range of 8 to 40 nM. With `COc1ccc(C2c3[nH]c4ccc([S+](C)[O-])cc4c3CCN2C(=O)Oc2ccc(F)cc2)cc1` (centres unmarked) [Compound 1491], the concentration giving a half-maximal response (EC50) is over 1000 nM. For `CC1(C)OC[C@H](CCOc2ccc([C@H]3c4[nH]c5ccc(Cl)cc5c4CCN3C(=O)Oc3ccc(Cl)cc3)cc2)O1` [Compound 1203], the concentration giving a half-maximal response (EC50) is under 8 nM.

With `COc1ccc(C2c3[nH]c4ccc(Cl)cc4c3CCN2c2nc(C(C)(C)C)cs2)cc1` (centres unmarked) [Compound 1587], the concentration giving a half-maximal response (EC50) is under 8 nM. In turn, `CC(C)COC(=O)N1CCc2c([nH]c3ccc(Cl)cc23)C1c1ccc(OCCOc2cc(N)n[nH]2)cc1` (centres unmarked) [Compound 1406] gave an EC50 of 40 to 200 nM. As to `CC1(COC(=O)N2CCc3c([nH]c4ccc(Cl)cc34)[C@@H]2c2ccc(OC[C@H](O)CO)cc2)CC1` [Compound 1378], the EC50 is under 8 nM.

With `CC(C)COC(=O)N1CCc2c([nH]c3ccc(Cl)cc23)C1c1ccc(OCCCN2CCN(C)CC2)cc1` (centres unmarked) [Compound 1104], the EC50 fell in the range of 8 to 40 nM.

With `CCOC(=O)N1CCc2c([nH]c3ccc(Cl)cc23)[C@@H]1c1ccc(OCCCNC2CC2)cc1` [Compound 1264], the 50% effective concentration (EC50) was in the range of 8 to 40 nM. `CCOC(=O)N1CCc2c([nH]c3ccc(Cl)cc23)[C@@H]1c1ccc(OC2COC2)cc1` [Compound 1699]: the concentration for a half-maximal effect (EC50) is under 8 nM.

As for `CC(C)=CC(=O)N1CCc2c([nH]c3ccc(Cl)cc23)C1c1ccc(OCCCn2cncn2)cc1` (centres unmarked) [Compound 1542], the EC50 is under 8 nM. The molecule `CC(=O)N1CCN(CCCOc2cccc(C3c4[nH]c5ccc(Cl)cc5c4CCN3C(=O)Oc3ccc(F)cc3)c2)CC1` (centres unmarked) [Compound 1364] showed a 50% effective concentration (EC50) of 40 to 200 nM.

Molecule `COc1ccc(OC(=O)N2CCc3c([nH]c4cccc(Cl)c34)C2c2ccc(OC)cc2)cc1` (centres unmarked) [Compound 1534] registered a half-maximal effective concentration (EC50) of 200 to 1000 nM.

`NC(=O)COc1ccc(C2c3[nH]c4ccc(Cl)cc4c3CCN2C(=O)OCCF)cc1` (centres unmarked) [Compound 1211] showed an EC50 of 8 to 40 nM. Molecule `[H]/N=C(\N)NCCOc1ccc(C2c3[nH]c4ccc(Cl)cc4c3CCN2C(=O)OCCOC)cc1` (centres unmarked) [Compound 1410] had an EC50 of over 1000 nM. For the molecule `CC#CCOC(=O)N1CCc2c([nH]c3ccc(Cl)cc23)C1c1ccc(OCC(N)=O)cc1` (centres unmarked) [Compound 1212], the EC50 fell in the range of 8 to 40 nM. The molecule `O[C@@H](CCOc1ccc([C@H]2c3[nH]c4ccc(Cl)cc4c3CCN2c2ncccn2)cc1)CN1CCOCC1` [Compound 1303] had an EC50 of under 8 nM.

Regarding `C[Si](C)(C)CCS(=O)(=O)N1CCC(Oc2ccc([C@H]3c4[nH]c5ccc(Cl)cc5c4CCN3C(=O)Oc3ccc(Cl)cc3)cc2)CC1` [Compound 1652], the EC50 was under 8 nM. `COc1ccc(C2c3[nH]c4ccc(Cl)cc4c3CCN2c2nc(-c3ccccc3)c(C(=O)c3ccc(Cl)cc3)s2)cc1` (centres unmarked) [Compound 1600] came in with an EC50 of under 8 nM. As to `COc1ccc(C2c3[nH]c4ccc(Cl)cc4c3CCN2c2nc(CC(C)=O)cs2)cc1` (centres unmarked) [Compound 1596], the EC50 lay in the range of 8 to 40 nM. For the molecule `O[C@H](COc1ccc([C@H]2c3[nH]c4ccc(Cl)cc4c3CCN2c2ncccn2)cc1)CN1CCOCC1` [Compound 1249], the concentration for a half-maximal effect (EC50) is under 8 nM.

`COc1ccc(OC(=O)N2CCc3c([nH]c4ccc(C#N)cc34)C2c2ccc(OC)cc2)cc1` (centres unmarked) [Compound 1516] registered an EC50 of 200 to 1000 nM.

Molecule `CC#CCOC(=O)N1CCc2c([nH]c3ccc(Cl)cc23)[C@@H]1c1ccc(OC2CCN(C[C@H](O)CO)CC2)cc1` [Compound 1697] had an EC50 of under 8 nM.

In the case of `CCOC(=O)N1CCc2c([nH]c3ccc(Cl)cc23)C1c1ccc(OCCNc2nccnn2)cc1` (centres unmarked) [Compound 1398], the 50% effective concentration (EC50) is 40 to 200 nM. The molecule `O=C(Oc1ccc(Cl)cc1)N1CCc2c([nH]c3cc(F)ccc23)C1c1ccc(F)cc1` (centres unmarked) [Compound 1459] showed an EC50 of over 1000 nM. The molecule `COCCOC(=O)N1CCc2c([nH]c3ccc(Cl)cc23)C1c1ccc(OCCCO)cc1` (centres unmarked) [Compound 1109] displayed an EC50 of under 8 nM. Molecule `COc1ccc(C2NCCc3c2[nH]c2ccc(C#N)cc32)cc1` (centres unmarked) [Compound 1519] had a 50% effective concentration (EC50) of over 1000 nM. The molecule `[H]/N=C(\N)NCCOc1ccc(C2c3[nH]c4ccc(Cl)cc4c3CCN2C(=O)OCC#CC)cc1` (centres unmarked) [Compound 1402] registered a 50% effective concentration (EC50) of 200 to 1000 nM.

For the molecule `O=C(OCC1CCCC1)N1CCc2c([nH]c3ccc(Cl)cc23)[C@@H]1c1ccc(OC[C@H](O)CO)cc1` [Compound 1685], the half-maximal effective concentration (EC50) is under 8 nM. Regarding `CCOC(=O)NC[C@@H](O)COc1ccc([C@H]2c3[nH]c4ccc(Cl)cc4c3CCN2C(=O)Oc2ccc(F)cc2)cc1` [Compound 1664], the 50% effective concentration (EC50) was under 8 nM. The molecule `O=C(OCC1CCC1)N1CCc2c([nH]c3ccc(Cl)cc23)[C@@H]1c1ccc(OCC2(CO)COCOC2)cc1` [Compound 1386] came in with a concentration for a half-maximal effect (EC50) of 8 to 40 nM. Regarding `CCOC(=O)N1CCc2c([nH]c3ccc(Cl)cc23)[C@@H]1c1ccc(Oc2cnccn2)cc1` [Compound 1574], the concentration for a half-maximal effect (EC50) is under 8 nM.

`CCCOC(=O)N1CCc2c([nH]c3ccc(Cl)cc23)C1c1ccc(OCCCN2CCOCC2)cc1` (centres unmarked) [Compound 1105]: the concentration giving a half-maximal response (EC50) was under 8 nM. The value for `O=C(c1ccc(F)cc1)N1CCc2c([nH]c3ccc(Cl)cc23)C1c1ccc(OCCCn2cncn2)cc1` (centres unmarked) [Compound 1138] was 8 to 40 nM; that for `O=C(OCc1ccccc1)N1CCc2c([nH]c3ccc(Cl)cc23)C1c1ccc(OCCCO)cc1` (centres unmarked) [Compound 1059] was under 8 nM.

For `CC1(C)OC[C@H](CCOc2ccc([C@H]3c4[nH]c5ccc(Cl)cc5c4CCN3c3ncccn3)cc2)O1` [Compound 1244], the concentration for a half-maximal effect (EC50) is under 8 nM. On to `COCCOC(=O)N1CCc2c([nH]c3ccc(Cl)cc23)C1c1ccc(OCC2OCCO2)cc1` (centres unmarked) [Compound 1042], for which the concentration for a half-maximal effect (EC50) was 8 to 40 nM.

`CCOC(=O)N1CCc2c([nH]c3ccc(Cl)cc23)[C@@H]1c1ccc(OCCC(O)CNC(=O)c2ccccn2)cc1` (some centres unmarked) [Compound 1618] showed a concentration giving a half-maximal response (EC50) of under 8 nM. For the molecule `CCC(CO)(CO)COc1ccc([C@H]2c3[nH]c4ccc(Cl)cc4c3CCN2C(=O)OCC2(C)CC2)cc1` [Compound 1384], the 50% effective concentration (EC50) was under 8 nM.

Take `CCOC(=O)N1CCc2c([nH]c3ccc(Cl)cc23)[C@@H]1c1ccc(OC[C@H]2COC(C)(C)O2)cc1` [Compound 1226]: the concentration for a half-maximal effect (EC50) was under 8 nM.
